Results from patent publication US4039384A, “Creatinine amidohydrolase and creatine amidinohydrolase and process for producing them” (Noda Institute for Scientific Research, priority 1975, dated 1977).
Like-named read-outs stand apart in the source and are kept apart here.

What was measured:
[1] = target: T1, creatine amidinohydrolase of this invention (from Flavobacterium U-188, Micrococcus luteus ATCC 398 or Corynebacterium U-41) (Flavobacterium sp. U-188, UniProt P19213); experiment: Creatine amidinohydrolase activity, enzyme of this invention; format: biochemical
T1 sequence (P19213 1-403): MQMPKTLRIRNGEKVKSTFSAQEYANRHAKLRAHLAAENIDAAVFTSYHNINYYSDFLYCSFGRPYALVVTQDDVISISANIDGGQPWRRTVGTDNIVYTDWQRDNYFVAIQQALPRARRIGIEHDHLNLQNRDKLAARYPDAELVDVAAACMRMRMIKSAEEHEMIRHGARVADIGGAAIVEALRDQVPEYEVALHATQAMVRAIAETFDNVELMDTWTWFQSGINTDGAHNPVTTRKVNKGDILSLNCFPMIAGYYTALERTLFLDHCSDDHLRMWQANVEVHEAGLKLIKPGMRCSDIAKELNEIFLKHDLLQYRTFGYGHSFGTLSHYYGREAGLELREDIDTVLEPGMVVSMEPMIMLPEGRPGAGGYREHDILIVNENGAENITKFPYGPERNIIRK
Description: This enzyme has an ability to hydrolyze creatine into urea and sarcosine. […] 2.
To 0.8 ml of 0.1 M creatine solution are added 0.1 of 0.3 M phosphate buffer (pH 7.7) and 0.1 ml of a solution of this enzyme having an appropriate concentration, and the resulting mixture is reacted at 37° C. for 10 minutes. Then, 2 ml of 2% (W/V) p-dimethylaminobenzaldehyde solution (prepared by dissolving 2 g of p-dimethylaminobenzaldehyde into 100 ml of 99.5% ethanol, adding 15 ml of concentrated hydrochloric acid and diluting the mixture with distilled water to a 2 times greater quantity) is added, and the resulting mixture is allowed to stand at 25° C. for 30 minutes. Then, its absorbance (O. D. value) at 435 mμ is measured with photoelectric colorimeter. […] The quantity of enzyme necessary for producing 1 micromole of urea per one minute at 37° C. is taken as one unit.

[2] = target: T2, creatine amidinohydrolase of prior art (i) (Journal of General Microbiology, Vol. 14, pp. 351 to 365 (1956); Genus Pseudomonas) (Pseudomonas putida, UniProt P38488); settings: cited from earlier work
T2 sequence (P38488 1-403): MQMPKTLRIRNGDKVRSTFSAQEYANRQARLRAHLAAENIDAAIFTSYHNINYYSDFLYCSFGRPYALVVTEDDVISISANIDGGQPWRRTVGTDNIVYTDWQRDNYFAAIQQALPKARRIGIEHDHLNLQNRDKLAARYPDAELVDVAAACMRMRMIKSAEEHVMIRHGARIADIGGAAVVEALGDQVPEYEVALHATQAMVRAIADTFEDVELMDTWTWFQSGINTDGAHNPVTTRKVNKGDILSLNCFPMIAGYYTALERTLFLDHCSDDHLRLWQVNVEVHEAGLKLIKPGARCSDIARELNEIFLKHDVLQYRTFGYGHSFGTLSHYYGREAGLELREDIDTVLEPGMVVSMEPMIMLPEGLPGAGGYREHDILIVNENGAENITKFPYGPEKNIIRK

[3] = inhibitor final concentration 2 × 10^-2 M
[4] = inhibitor final concentration 5 × 10^-2 M, pH 9.1

Compound: [N-]=[N+]=[N-] [Azide]
- Percentage inhibition of creatine removal [1, 3]: 0%
- Percentage inhibition of creatine removal [2, 3]: 18%

Compound: O=C(O)CI [Iodoacetate]
- inhibition at 10000 µM ([1]; read-out: Percentage inhibition of creatine removal): 0%
- Percentage inhibition of creatine removal ([2]; inhibitor final concentration 10^-2 M): 20%

Compound: Borate
- Percentage inhibition of creatine removal [1, 4]: 40%
- Percentage inhibition of creatine removal [2, 4]: 80%
